# Assay results published in PubChem BioAssay AID1645871.
# Conditions: pampa; pH 5.0; 30.0 min; 50.0 µM
row,SMILES,Papp [×10⁻⁶ cm/s]
1,Cc1cccc(-c2noc([C@@H]3Cc4nc[nH]c4CN3C(=O)CC(C)(C)CC(=O)O)n2)c1,46.7
2,C=Cc1ccc(Cn2c(C(=O)O)c(CNC3CCCCC3)c3ccc(OC)cc32)cc1,702
3,CNC(=O)C1CCN(C(=O)c2ccc(-c3ncc4cnc(-c5ccccc5)cn34)cc2)CC1,30.1
4,O=C(NCc1ccccc1)c1nc(S(=O)(=O)Cc2ccc(F)cc2)ncc1Cl,296
5,CC1=C[C@@H](CNC(C)C)[C@H](C(C)C)C[C@H]1Cc1nnc(-c2ccncc2)o1,41.3
6,COc1cccc(C(=O)Nc2nc(-c3nnn(-c4ccccc4C(F)(F)F)c3C)ns2)c1,834
7,COc1ccc(NC(=O)c2cc(-c3ccc[nH]3)n[nH]2)cc1OC,203
8,COc1ccc(-n2nc(C3CCCN(C(=O)c4cccc(OC)c4)C3)[nH]c2=O)cc1 (centres undefined),431
9,Cc1nn2c(c1-c1ccccc1-c1ccccc1)N(CCC(C)C)CCC2,350
10,Cc1ccc(NC(=O)NCC2CCN(Cc3cccc(Cl)c3)CC2)cc1Cl,> 1000
11,CN(Cc1ccc(/C=C/C(=O)NO)cc1)CC12CC3CC(CC(C3)C1)C2,108
12,Nc1c(S(=O)(=O)c2cccs2)c2nc3ccccc3nc2n1Cc1ccccc1,> 1000
13,CN1CCN(C2=Nc3ccccc3Sc3ccc(Cl)cc32)CC1,887
14,COC(=O)c1ccc(O)c2ncc(N3CCN(C)CC3)cc12,80.1
15,COc1cc(C(=O)N2CCN(c3cc(Cl)ccc3Cl)CC2)cc(OC)c1OC,> 1000
16,Cc1nc2nc(NC(=O)c3ccc(C(C)(C)C)cc3)[nH]n2c(=O)c1Cl,83.9
17,Fc1ccccc1CNCc1ccc(-c2ccnc3[nH]ccc23)cc1,266
18,CCOC(=O)c1ccc(NC(=O)CSc2nc3c(cc2C#N)N2CCC3CC2)cc1,236
19,COc1ccc(-c2[nH]nc3ncc(-c4ccc(CO)cc4)nc23)cc1F,428
20,Cc1nn2c(c1-c1ccccc1-c1ccccc1)N(Cc1ccc(O)cc1)CCC2,118
21,Cc1ccc(C(=O)N2CCc3c(nc4cc(-c5ccccc5)[nH]n4c3=O)C2)cn1,1.2
22,COc1ccc(C)cc1Nc1c2c(nc3ccccc13)CCC2,293
23,Cc1ccc(C)c(CN2CCC(CNC(=O)Nc3ccc(Br)cc3F)CC2)c1,979
24,COc1ccccc1-c1[nH]nc2ncc(-c3ccc(C)cc3)nc12,1.92
25,Cc1nc(-c2ccco2)cc([C@H]2CN3CC[C@H]2C[C@@H]3CNC(=O)NC2CCCCC2)n1,4.96
26,COc1ccc(-n2nc(C3CCCN(CC4CCCCC4)C3)[nH]c2=O)cc1 (centres undefined),322

row,SMILES,Papp [×10⁻⁶ cm/s]
1,CC1=C(C(=O)Nc2nc3ccccc3s2)C(c2[nH]ncc2Cl)N=C(Nc2nc3ccccc3o2)N1 (centres undefined),15.6
2,COc1cc(NC(=O)c2nc3ccccc3n(C)c2=O)cc(OC)c1OC,151
3,CCN1CCCC1CNC(=O)c1cc(S(=O)(=O)CC)c(N)cc1OC (centres undefined),6.63
4,CCOC(=O)C1CCN(c2ncc(-c3ccc4c(c3)OCCCO4)s2)CC1,> 1000
5,COc1cccc(-n2nc(C(=O)O)cc2-c2ccc(C3CCCCC3)c(Cl)c2)c1,401
6,Cc1ccc(C(=O)NC2CCN(c3cnn(CC4CC4)c(=O)c3)CC2)cc1C,498
7,CCOC(=O)c1ccc(NC(=O)c2sc3nc4c(cc3c2N)N2CCC4CC2)cc1,720
8,CC1=Nc2cc(C(=O)NCCc3ccccc3)ccc2Sc2c(C)ccc(C)c21,466
9,CN(C)CCCn1cc(C2=C(c3c[nH]c4ccccc34)C(=O)NC2=O)c2ccccc21,39.3
10,Cc1ccnc(NC(=O)C2CC(=O)N(c3n[nH]c4cc(Br)ccc34)C2)c1 (centres undefined),62.8
11,COc1ccc(Nc2cnc3ccc(-c4ccc(OC)c(OC)c4)nn23)cc1,821
12,CC(C)c1ccccc1-c1nc2c(c(NCc3ccc(-c4cccnc4)cc3)n1)CNC2,98.7
13,CCCCOc1ccc(C(=O)N2CCC(c3n[nH]c(=O)n3-c3ccc(C)cc3)CC2)cc1,> 1000
14,CCOc1ccc(C2c3c(oc4ccc(C)cc4c3=O)C(=O)N2CCCN(C)C)cc1 (centres undefined),29.6
15,CN(C)CCOC1=Cc2ccccc2Sc2ccc(Cl)cc21,857
16,CCc1ccc(C2N=C(N)Nc3nc4ccccc4n32)cc1 (centres undefined),1.54
17,COc1ccc(-n2nc(C3CCN(C(=O)C4CC4)CC3)[nH]c2=O)cc1,130
18,CC(=O)c1c(C)oc2ccc(N(C(=O)Oc3ccccc3)S(=O)(=O)c3ccccc3)cc12,> 1000
19,CC(=O)Nc1ccc(C(=O)Nc2ccc3c(c2)N(C2CCCC2)C(=O)c2ccccc2S3)cc1,511
20,Cc1c(-c2cccc(NC(=O)c3ccc(F)c(F)c3)c2)nc2ncccn12,710
21,COc1ccc(-c2nc3ccc(C4=NNC(=O)CC4C)cc3[nH]2)cc1 (centres undefined),232
22,CCOc1ccc(N2CC(c3nc(-c4cc(OC)c(OC)c(OC)c4)no3)CC2=O)cc1 (centres undefined),> 1000
23,CSc1nn(Cc2cccc(C)c2)c(N)c1S(=O)(=O)c1ccccc1,878
24,COc1ccc(-c2nc3c(c(SCC(=O)Nc4ccc(C(=O)O)cc4)n2)Cc2ccccc2O3)cc1,36.6
25,COc1cccc(C(=O)Nc2nnc(S(=O)(=O)N3CCOCC3)s2)c1,787
26,Cc1cc(C)cc(C(=O)Nc2ccc3c(N4CCCC4)ncnc3c2)c1,506

row,SMILES,Papp [×10⁻⁶ cm/s]
1,COC(=O)c1ccc(NS(=O)(=O)c2c(C)nc3sccn3c2=O)cc1,413
2,Cc1cccc(S(=O)(=O)c2cn(Cc3ccccc3)c3cc(N4CCCCC4C)c(F)cc3c2=O)c1 (centres undefined),485
3,Nc1c(-c2ccncc2)cc[nH]c1=O,2.72
4,COc1ccc(-c2c(-c3cc(C(=O)O)ccn3)ncn2C)cc1,2.67
5,c1ccc(-c2cn[nH]c2)cc1,51.2
6,O=C(c1ccc2c(c1)OCO2)N1CCC(Cc2nc(-c3cnccn3)no2)CC1,44
7,Cc1ccccc1C(=O)Nc1ccc2c(c1)CCCN2C(=O)c1cccs1,561
8,Cc1ccccc1-c1nc(NCc2ccc(-c3cccnc3)cc2)c2ccccc2n1,> 1000
9,O=C(NCCc1ccccn1)C1CC(=O)N(c2n[nH]c3cc(Br)ccc23)C1 (centres undefined),11.5
10,CCc1cccc(NC(=O)C(Cc2ccccc2)NS(=O)(=O)c2cccs2)c1 (centres undefined),> 1000
11,C=C1[C@@H](C)C2[C@H](Cc3ccccc3)NC(=O)[C@@]23C(/C=C/C[C@H](C)C[C@@](C)(O)/C=C/[C@@H]3OC(C)=O)[C@@H]1O (some centres undefined),55
12,COc1ccc(-c2nc3sc(CCNC(=O)C(C)(C)C)c(C)n3n2)cc1,657
13,COc1ccccc1-c1nnc2sc(-c3ccc(N(C)C)cc3)nn12,> 1000
14,C#CCOc1ccc(-c2nnc(Nc3ccc(NC(C)=O)cc3)c3ccccc23)cc1,265
15,COc1ccc(-c2ccc3ncc(Nc4cccnc4OC)n3n2)cn1,758
16,CCC(=O)N1CCN(c2ccc(-n3c(=O)ccc4cnc5ccc(-c6cnc7ccccc7c6)cc5c43)cc2C(F)(F)F)CC1,537
17,Cc1cc(-c2ccc(C)c(S(=O)(=O)NCC3CCN(Cc4ccc(F)cc4)CC3)c2)on1,486
18,COc1cc(C(=O)NC2CCCc3c2[nH]c2c(Cl)cccc32)cc(OC)c1OC (centres undefined),384
19,CC(C)c1ccccc1-c1nc(NCc2ccc(-c3cccnc3)cc2)c2ccccc2n1,> 1000
20,CCC(CC)C(=O)NC[C@@H]1C=C(C)[C@H](Cc2nc3c(C)cccc3[nH]2)C[C@H]1C(C)C,> 1000
21,CCc1cccc(NC(=O)c2cc(-c3ccc[nH]3)n[nH]2)c1,90.2
22,Cc1ccc(-n2nc3c(=O)n(CCCC(=O)NCc4ccccc4F)nc(C)c3c2C)cc1,291
23,C[C@@]1(c2ncncc2F)NC(=O)c2cc(-c3cn[nH]c3)ccc21,> 1000
24,COc1cccc(Cn2c(=O)n(-c3cccc(Cl)c3C)c(=O)c3c4c(sc32)CN(C(C)=O)CC4)c1,> 1000
25,C[C@]1(CO)CN(c2cc(C(=O)Nc3ccc4c(c3)-c3c(c(C(N)=O)nn3-c3ccc(F)cc3)CC4)c(Cl)cn2)C[C@@]1(C)CO,45.6
26,O=C(c1ccc(-c2ncc3cnc(-c4ccccc4)cn23)cc1)N1CCS(=O)(=O)CC1,22.8

row,SMILES,Papp [×10⁻⁶ cm/s]
1,COc1ccc(-n2nc(C)c([C@@H]3C=C[C@@H](NCc4cccc(Cl)c4)C3)c2C)cc1,773
2,c1ccc(Nc2cc3c(cn2)CN(Cc2ccsc2)CCN3)cc1,15.3
3,O=C(Nc1ccc(Oc2ccnc3[nH]ccc23)c(F)c1)c1cccn(-c2ccc(F)cc2)c1=O,9.36
4,CN(C)[C@@H]1CCN(c2cccc(Nc3nn4c(=O)c5ccccc5nc4s3)c2)C1,24.9
5,O=C(NCCCNc1nc(Nc2cccc(CN3CCOCC3)c2)ncc1C1CC1)C1CCC1,8.82
6,COc1ccc(-n2nc(C3CCN([S+](=O)([O-])c4c(C)noc4C)CC3)[nH]c2=O)cc1,308
7,CNC(=O)c1ccc(C)c(-n2c(C)cc(OCc3ccc(F)cc3F)c(Br)c2=O)c1,627
8,Cn1cc2c3c(cccc31)CN(C(=O)c1ccc(F)c(Cl)c1)CC2,824
9,COC(=O)Nc1nc2ccc(SC(C)C)cc2[nH]1,510
10,Cc1ccc(C(=O)N2CCc3sc(C(=O)NC(C)c4ccccc4)cc3C2)cc1 (centres undefined),425
11,c1coc(-c2nc3ccncc3[nH]2)c1,5.56
12,Oc1ccc(-c2nc(C3CC3)nc3c2CCN(Cc2ccc(F)cc2)CC3)cc1,421
13,C[C@]12N[C@H](Cc3ccccc31)c1ccccc12,72.8
14,COc1ccc(N(C)C(=O)c2cc3c(s2)-c2ccccc2OC3)cc1,963
15,Cc1ccc(NC2=C(c3ccc(C(F)(F)F)cc3)C(=O)c3ccccc32)cc1F,574
16,COc1ccccc1CNS(=O)(=O)c1ccc(-c2cnc(C3CC3)o2)cc1,> 1000
17,CN(C)c1cccc(-c2cnc(Nc3cccnc3)c3c2CCO3)c1,> 1000
18,COc1cccc(Nc2ncc(-c3cccc(N(C)C)c3)c3c2OCC3)c1,> 1000
19,CCOc1ccccc1C(=O)NC1CCN(c2cc(C)cc(C)c2)C1=O (centres undefined),> 1000
20,CNc1nc2c(s1)C(c1ccccc1F)CC(=O)N2 (centres undefined),60.3
21,COc1ccc(Cn2c(C(=O)O)c(CNCc3ccco3)c3ccc(C)cc32)cc1,618
22,Cc1cc(Br)ccc1NC(=O)C(NS(=O)(=O)c1cccs1)c1ccccc1 (centres undefined),79.4
23,CCOc1ccc(CCNC(=O)c2cccc(C(=O)c3ccccc3)c2)cc1OCC,> 1000
24,CN1CCN(c2ccc(Nc3nn4c(=O)c5ccccc5nc4s3)cc2)CC1,5.91
25,COc1ccc2[nH]cc(CCNC(=O)c3cnn(-c4ccc(C)cc4)c3C3CCN(C(=O)OC(C)(C)C)CC3)c2c1,689
26,COC(=O)[C@@H]1C[C@H](OC(C)=O)C(=O)[C@H]2[C@@]1(C)CC[C@H]1C(=O)O[C@H](c3ccoc3)C[C@]21C,381
